Reference: PubChem BioAssay (NCI)
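Cultured in 96-well plates, cells were exposed to test compound for 48 hours across five concentrations. Here, GI50 denotes the concentration required for 50% inhibition of growth. The concentration for full growth arrest is given as TGI.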

Assays:
Experiment in all cases: NCI tumour cell line growth inhibition, 48 h
[1] = tested on: HT29 colon
[2] = tested on: OVCAR-4 ovarian
[3] = tested on: LOX IMVI melanoma
[4] = tested on: MOLT-4 leukemia
[5] = tested on: HCC-2998 colon
[6] = tested on: NCI/ADR-RES ovarian
[7] = tested on: UACC-257 melanoma
[8] = tested on: UO-31 renal
[9] = tested on: RXF 393 renal
[10] = tested on: MALME-3M melanoma

Row | Structure (SMILES) | GI50 [1] [µM] | TGI [1] [µM] | GI50 [2] [µM] | TGI [2] [µM] | GI50 [3] [µM] | TGI [3] [µM] | GI50 [4] [µM] | TGI [4] [µM] | GI50 [5] [µM] | TGI [5] [µM] | GI50 [6] [µM] | TGI [6] [µM] | GI50 [7] [µM] | TGI [7] [µM] | GI50 [8] [µM] | TGI [8] [µM] | GI50 [9] [µM] | TGI [9] [µM] | TGI [10] [µM] | GI50 [10] [µM]
1 | CSc1ccc(C(=O)/C=C/c2ccc(F)cc2)cc1 | 19.5 | > 100 | 76.2 | > 100 | 29.1 | 83.4 | 33.9 | 94.4 | 41.8 | > 100 | > 100 | > 100 | > 100 | > 100 | > 100 | > 100 | > 100 | > 100 |  | 
2 | Cc1cc(Cl)ccc1Nc1nc(C(F)(F)F)ccc1C(=O)N/N=C/c1ccc(N(C)C)cc1 | 3.8 | > 100 |  |  | 0.7 | > 100 | 2.22 | > 100 | 1.43 | > 100 | 2.21 | > 100 | 4.97 | > 100 | 2.97 | > 100 | 0.633 | 44.4 |  | 
3 | N#CNc1nc(C(=O)Nc2ccc(Cl)cc2)cc(-c2ccccc2)n1 |  | > 100 |  | > 100 |  |  |  | > 100 |  | > 100 |  |  |  | > 100 |  | > 100 |  | > 100 | > 100 | 
4 | CCc1ccccc1NC(=O)C1=C(C)NC(C)=C(C(=O)Nc2ccccc2CC)C1c1ccc(NC(C)=O)cc1 |  | > 100 |  | > 100 |  | 44.2 |  | 54.4 |  | 48.6 |  |  |  | > 100 |  | > 100 |  | 65 | > 100 | 
5 | CC(=O)[CH-]C(=O)c1ccccc1.CC(=O)[CH-]C(=O)c1ccccc1.CC[O-].O=C1C=C([O-])C(=O)c2ccccc21.[Ti+4] | 41 | > 100 | > 100 | > 100 | 20 | > 100 | 58.3 | > 100 | 23.1 | > 100 |  |  | 8.49 | 86 | > 100 | > 100 | > 100 | > 100 | > 100 | 34.8
6 | CN(/C(=N\O)c1ccccc1)c1ccccc1 |  | 87.5 |  | > 100 |  | 75.7 |  |  |  | 73.5 |  |  |  | > 100 |  | 69.3 |  |  | 84.1 | 
7 | CN(Cc1ccccc1)c1nc(=[N+](C)C)ss1 |  | > 100 |  | > 100 |  | > 100 |  | > 100 |  | > 100 |  |  |  | > 100 |  | > 100 |  | > 100 | > 100 | 
8 | O/N=C1/C(=C/c2ccccc2)CCCC1C(NO)c1ccccc1 (stereo not given) |  | > 100 |  | > 100 |  | > 100 |  | 90.8 |  |  |  |  |  | > 100 |  | > 100 |  | > 100 | > 100 | 
9 | COC(=O)C(C(=O)C(=O)Nc1ccc(C)cc1C)c1nc2ccc([N+](=O)[O-])cc2[nH]c1=O (stereo not given) |  | > 100 |  | > 100 |  | > 100 |  | > 100 |  |  |  |  |  | > 100 |  | > 100 |  | > 100 | > 100 | 
10 | CCOC(CN(C)C(=O)OCC(Cl)(Cl)Cl)OCC |  | > 100 |  | > 100 |  | > 100 |  | > 100 |  | > 100 |  | > 100 |  | > 100 |  | > 100 |  | > 100 |  | 
